Laboratory results as given in patent US20240108740A1, “THERAPEUTIC COMPOSITIONS INCLUDING SPN10 AND USES THEREOF” (Stealth BioTherapeutics Inc., priority 2022, published 2024).
Residues, ends and D or L forms follow the SMILES beside them.

Tests used:
[1] = tested on: mouse peritoneal macrophages; test: Example 1: oxLDL-induced CD36 expression and foam cell formation; format: cell-based
Description: Other controls will include CD36 expression from mouse heart (H) and macrophages obtained from CD36 knockout mice (KO). The amount of CD36 protein will be normalized to β-actin.
Incubation of macrophages with oxLDL for 48 hours is also anticipated to increase foam cell formation. Foam cell will be visualized by oil red O, which stains lipid droplets red.
Incubation of macrophages with oxLDL is anticipated to increase the percentage of apoptotic cells.

mice = test: Example 57: Ang II-induced hypertensive cardiomyopathy; format: in vivo, mouse
Description: Mouse experiments, drug delivery, echocardiography and blood pressure measurement. Six to ten mice will be included in each experimental group (Saline, Ang II, Ang II+peptide conjugate, Ang II+aromatic-cationic peptide, Ang II+SPN10, Ang II+SPN10+aromatic-cationic peptide, WT, Gαq, Gαq+peptide conjugate, Gαq+aromatic-cationic peptide, Gαq+SPN10, Gαq+SPN10+aromatic-cationic peptide). A pressor dose of Ang II (1.1 mg/kg/d) will be continuously administered for 4 weeks using subcutaneous Alzet 1004 osmotic minipumps, either alone or in the presence of with peptide conjugates (3 mg/kg/d), aromatic-cationic peptides (an equivalent molar dose of aromatic-cationic peptide based on concentration of the aromatic-cationic peptide administered in the peptide conjugate group), SPN10(s) (an equivalent molar dose of SPN10 based on concentration of SPN10 administered in the peptide conjugate group), or SPN10(s) in combination with aromatic-cationic peptides (e.g., an equivalent molar dose of SPN10 based on the concentration of SPN10 administered in the peptide conjugate treatment group and an equivalent molar dose of aromatic-cationic peptide based on the concentration of aromatic-cationic peptide administered in the peptide conjugate treatment group). Echocardiography will be performed at baseline and 4 weeks after pump implantation using a Siemens Acuson CV-70 equipped with a 13 MHz probe. […] MTI will be calculated as the ratio of the sum of isovolemic contraction and relaxation time to LV ejection time. […]
Blood pressure will be measured in a separate group of mice by telemetry using an intravascular catheter PA-C 10 (DSI, MN), in which measurement will be performed every three hours starting from 2 days before pump placement until 2 days after Ang pump placement. […]
Quantitative Pathology. […] Quantitative analysis of fibrosis will be performed by measuring the percentage of blue-staining fibrotic tissue relative to the total cross-sectional area of the ventricles. […]

N=C(N)NCCC[C@H](NC(=O)[C@@H](N)Cc1c[nH]c2ccccc12)C(=O)N[C@@H](Cc1c[nH]c2ccccc12)C(=O)N[C@@H](CCCCN)C(N)=O [SPN10, H-L-Trp-L-Arg-L-Trp-L-Lys-NH2] (H-WRWK-NH2)
percentage of apoptotic cells induced by oxLDL [1]: significantly reduce the percentage of apoptotic cells | up-regulation of CD36 protein levels by oxLDL ([1]; 25 μg/mL oxLDL, 48 hours): significantly inhibit the up-regulation of CD36 protein levels | CD36 protein levels (western blot) ([1]; compared to vehicle control (V)): significantly reduce CD36 protein levels | oxLDL-induced up-regulation of CD36 mRNA ([1]; oxLDL 50 μg/mL, 48 hours): abolish the up-regulation of CD36 | oxLDL-induced foam cell formation (oil red O) ([1]; oxLDL, 48 hours): prevent oxLDL-induced foam cell formation | Ang II-induced ventricular fibrosis (trichrome) (mice; 4 weeks of Ang II): fully attenuated | cardiac mitochondrial protein carbonyls (mice; 4 weeks of Ang II): significantly reduce cardiac mitochondrial protein carbonyls | Ang II-induced cardiomyopathy (mice; Ang II 1.1 mg/kg/d, 4 weeks): ameliorate Ang II-induced cardiomyopathy
